Test results from patent publication US9857356B2, “Muscle chips and methods of use thereof” (President and Fellows of Harvard College, priority 2011, dated 2018).
Bridges are numbered along the chain shown (N, C = ends). Where no end group is shown, it is not given here.

Columns and labels:
[1] = test system: Human umbilical artery vascular smooth muscle; experiment: Vascular muscular thin film (vMTF) contractility assay, films on posts; type: cell-based
Protocol: Human umbilical artery vascular smooth muscle was seeded on thin films at 300 cells/mm^2 in complete M199 medium (M199 supplemented with 10% fetal bovine serum (FBS), penicillin, streptomycin, L-glutamine, glucose and vitamin B12). The tissue was cultured in complete M199 for 48 hours, with a single media change at 24 hours. After 48 hours, the cells were serum starved for an additional 48 hours (M199 supplemented with penicillin, streptomycin, L-glutamine, glucose and vitamin B12, but no FBS).
Muscle thin films were transferred to fresh Tyrode's solution in the testing dish (FIG. 1), which is maintained at 37° C. by a peltier heating system. Films were adhered to Teflon coated posts (FIG. 3) by moving them into close contact using tweezers. The films were imaged using a stereomicroscope outfitted with fluorescent imaging capability. Both brightfield and fluorescent images were captured every thirty seconds. In the experiment shown in FIG. […]
Quantification and analysis of thin film motion was performed using ImageJ (NIH) and MATLAB software. Thresholded fluorescent images (FIG. 4B) were fit to circles whose radii of curvature could be measured (FIG. 4C). Using elasticity theory, the contraction stress necessary to induce the measured changes in curvature were calculated (FIG. 4D). […]

[2] = test system: vascular smooth muscle cells; experiment: Horizontal vascular smooth muscle thin film (hMTF) contractility assay; type: cell-based
Protocol: FIG. 12 contrasts the use of fluorescent microscopy and the use of brightfield stereo microscopy of vascular smooth muscle (VSM) horizontal MTFs during an assay of the invention as described in Example 5. The top row depicts fluorescent microscopy photographs of VSM horizontal MTFs comprising fluorescent beads embedded in the PDMS film. […] (A) Photographs taken 5 minutes after the start of the experiment, the films are slightly bent up from the glass due to the initial contraction of VSM. […] Polydimethylsiloxane (PDMS) thin film substrates were fabricated via a multi-step spin coating process. Poly(N-isopropylacrylamide) ([…]) (Polysciences, Inc.) was dissolved at 10 wt % in 99.4% 1-butanol (w/v) and was then deposited as a thin layer onto the open glass islands, then the top protective film layer was peeled off. Sylgard 184 (Dow Corning) polydimethylsiloxane (PDMS) elastomer was mixed at a 10:1 base to curing agent ratio doped with 0.1% by volume […] Fluorospheres (Invitrogen), and spun coated on top of the […] coated glass cover slip which was then cured. The next day, the bottom protective film was peeled off. A mask, printed on transparencies was used to cut the glass into desired shapes. MTFs were released from the cover slip once the cells have formed the appropriate 2D microstructure. The MTFs were either cut out by hand, cut out using a robotic system, pre-cut prior to cell incubation. In one specific example of, e.g., horizontal MTF production, the middle section was cut out, so that only six rectangles remained in the area that had […]). Once the Tyrode's solution cools below 35° C., the […] layer transitions from a hydrophobic state to a hydrophilic state and begins to dissolve. As the […] dissolved the middle section cutout was peeled off the substrate with a pair of tweezers. Once the […] dissolves completely, the contraction of the myocytes pulls the MTF (the remaining rectangles) free from the rigid substrate. In the case of the horizontal MTF, rectangles remain with one end partially fixed to the substrate. Actuation and observation of multiple MTFs was carried out in a physiologic solution (e.g., normal Tyrodes solution). The horizontal […]) fabricated with vascular smooth muscle cells in the presence of fluorescent beads were treated with the endothelium-produced vasoconstrictor endothelin-1 (ET-1) followed by the rho-kinase inhibitor HA-1077. […] Quantification and analysis of thin film motion was performed using ImageJ (NIH) and MATLAB software. From the thresholded fluorescent images the length of the projection of the film on the horizontal plane was tracked throughout the contraction and the radius of curvature calculated. Using elasticity theory, the contraction stress necessary to induce the measured changes in curvature were calculated.

| Molecule | stress after treatment (residual stress) ([1]; vMTFs, 100 mM HA-1077 following ET-1) [kPa] | effect on VSM horizontal MTFs (FIG. 12C) ([2]; 30 minutes after addition of the rho-kinase inhibitor) | change in radius of curvature ([2]; hMTFs, 100 mM HA-1077 following ET-1) | increase in cell generated stress ([1]; vMTFs stimulated with 50 nM ET-1 at time 0) [kPa] | effect on VSM horizontal MTFs (FIG. 12B) ([2]; 20 minutes after addition of the vasoconstrictor) | change in radius of curvature ([2]; hMTFs stimulated with 50 nM ET-1 at time 0) |
| --- | --- | --- | --- | --- | --- | --- |
| O=S(=O)(c1cccc2cnccc12)N1CCCNCC1 [HA-1077, fasudil] | 3.1±0.8 | causes the VSM to completely relax | rapid increase in radius of curvature | – | – | – |
| endothelin-1 (CSCSSLMDKECVYFCHLDIIW; disulfide 1-15, 3-11; ends not checked; UniProt P05305 53-73, looked up) [ET-1, endothelium-produced vasoconstrictor] | – | – | – | 5.06±0.75 | causes the VSM to contract | decrease in their radii of curvature |
